From patent publication US20080131404A1, “Hepatocytes” (priority 2004, published 2008)

Legend:
LIV0A07 [1] = experiment: TaqMan analysis of CYP3A4/CYP3A7 mRNA in LIV0A07; format: cell-based, human
Protocol: (§1) A standard TaqMan protocol was following using a 96 well optical reaction plate (Applied Biosystems, CA, USA). All probes and primers were supplied by MWG-Biotech, Ebersberg, Germany (see table 3). All probes were labelled with 3′TAMRA and 5′FAM. The reaction plate was sealed with optical adhesive cover (Applied Biosystems, CA, USA) and centrifuged for 1 min at 500 g before loading onto the TaqMan machine (ABI prism 7000 sequence detection system) and results analysed with ABI prism 7000 SDS software.

HuH7 cells = experiment: TaqMan analysis of CYP3A4 mRNA in HuH7; format: cell-based, human; settings: HuH7 samples
Protocol: as §1

[2] = tested on: clone 20 hepatocytes (c-myc-ER infected human foetal hepatocytes); experiment: Telomerase assay (Telo TAGGG telomerase PCR ELISA); format: cell-based; settings: hepatocytes cultured in 0.5-10 μM 4-OHT
Protocol: Cells from clone 20, p2 were cultured in T25 flasks for 1 week in media with 0, 100 nM, 1 μM and 10 μM 4-OHT for 1 week. The cells had been in culture for 2 months. Uninfected hepatocytes from the same liver were also used for the assay. These cells had been in culture for 3 weeks. The assay was performed according to the instructions for the Telo TAGGG telomerase PCR ELISAPWs (Roche). The plate reader GENios (Tecan) was used to analyse the results. Some of the fluorescence values were too high for the plate readers' spectra so a change to the protocol was done and the fluorescence was measured from only ⅓ of the final volume.

LIV0A07 [3] = experiment: Immunocytochemistry for hepatocyte markers albumin and CK-18; format: cell-based, human; settings: grown in the absence of 4-OHT for 48 h
Protocol: Immunocytochemistry was used for early assessment of the cell line. […] The human hepatoma cell line HuH7 was used as a positive control for liver markers, while a myc-immortalised neural stem cell line (197VM) cells were used as a negative control.
All staining was performed in multiwell plates using the following method. Medium was aspirated and cells washed once with PBS prior to fixing using 4% paraformaldehyde for 15 min at room temperature. Cells were then washed three times in PBS, before being permeabilised for 15 min using 0.1% triton x-100 in PBS. Cells were washed with PBS once more then blocked for 1 h in 10% normal goat serum (NGS) (Vector Laboratories, CA, USA) in PBS. Primary antibodies were applied in 1% NGS/PBS for 1 h at room temperature. Cells were washed three times in PBS then exposed to the secondary antibody in 1% NGS/PBS for 1 h at room temperature. Cells were washed three times in PBS and Hoechst, a dye that stains DNA, was added for 2 min at room temperature (1:25,000 in PBS). Cells were washed a further three times in PBS and left in the final wash. Analysis was performed using a fluorescence microscope (Leica DMRA). The secondary antibody excited at a wavelength of ˜488 nm and gave emission at ˜525 nm (green emission) while Hoechst excited at ˜350 nm and emitted at ˜425 nm (blue emission).

LIV0A07 [4] = experiment: Cyquant cell proliferation assay; format: cell-based, human
Protocol: Growth rate was assessed using the Cyquant cell proliferation assay (Molecular Probes, Paisley, UK). Cells were grown in multiwell plates or 25 cm^2 flasks and experiments were performed according to the manufacturers instructions.
Growth rate was assessed using the Cyquant cell proliferation assay to compare growth of LIV0A07 over 5 days in […] 4-OHT.

human foetal liver cells = experiment: Neomycin titre and selection; format: cell-based; settings: 250 μg/ml neomycin, 2 week selection
Protocol: To determine what concentration of neomycin to use on the liver cells exposed to the virus, in order to eliminate all or the majority of non-infected cells, but not the infected cells, a titre of neomycin was set up. Human foetal liver cells from a dissociated liver that had never been exposed to the immortalising virus were plated in 6-well plates and exposed to neomycin concentrations ranging from 0-900 μg/ml for 12 days in triplicate. 100, 500 and 2000 cells/well were plate and the cells were left for 2 days before the neomycin was added. The growth and proliferation of the cells were studied visually with the TMS-F microscope (Nikon). Based on the result from the neomycin titre a concentration of 250 μg/ml neomycin was used for 2 weeks on the liver cells exposed to the immortalising virus.

CYP3A4 mRNA level, differentiated vs undifferentiated cultures (LIV0A07 [1]; grown in the absence of 4-OHT for 72 h compared to cultures with 4-OHT) | effect of 4-OHT on CYP3A4 mRNA expression (HuH7 cells) | telomerase expression [2] | Compound | CYP3A7 mRNA level on differentiation (LIV0A07 [1]; absence of 4-OHT) | albumin and CK-18 staining, differentiated cultures (LIV0A07 [3]) | proliferation (LIV0A07 [4]; 0.1 mM 4-OHT, 5 days) | toxicity to the cells (LIV0A07 [4]; 1.0 mM 4-OHT, initial slow proliferation after seeding) | proliferation (LIV0A07 [4]; 0.5 and 1.0 mM 4-OHT, 5 days) | optimum concentration for 4-OHT dependent growth (LIV0A07 [4]; in the medium, 5 days) | survival of noninfected cells during selection (human foetal liver cells)
approximately 15 fold | no effect | up regulates telomerase expression | 4-hydroxytamoxifen [4-OHT] | did not display the same differentiation induced increase | slightly stronger | Little proliferation | may be slightly toxic | expanded to a greater extent | 0.5 to 1.0 mM | 
 |  |  | NC[C@@H]1O[C@H](O[C@H]2[C@@H](O)[C@H](O[C@@H]3[C@@H](O)[C@H](N)C[C@H](N)[C@H]3O[C@H]3O[C@H](CN)[C@@H](O)[C@H](O)[C@H]3N)O[C@@H]2CO)[C@H](N)[C@@H](O)[C@@H]1O [neomycin, Neomycin] |  |  |  |  |  |  | majority of the noninfected cells died
